# Test system: K562 leukemia cancer cells
# Protocol: DOX-loaded ICVs were tested for cytotoxicity to K562 cancer cells compared to free DOX, as assessed by using an MTT assay (see FIG. 5).
structure (smiles),measurement,value
"COc1cccc2c1C(=O)c1c(O)c3c(c(O)c1C2=O)C[C@@](O)(C(=O)CO)C[C@@H]3O[C@H]1C[C@H](N)[C@H](O)[C@H](C)O1 [DOX, doxorubicin]",order of K562 cytotoxicity,DOX>NK92 ICVs-DOX>K562 ICVs-DOX
